Legend:
Assay type in all cases: in vivo
[1] = test system: Glyphosate susceptible marestail (ERICA); assay: Greenhouse test, post-emergence control of glyphosate susceptible marestail; conditions: use rate 420 g/ha
Text: (§1) The phenyluracils I and/or the other active ingredients according to the present invention were formulated in a suitable way, either separately or in mixture, e.g. as emulsifiable concentrates (EC), soluble concentrates (SL), suspo-emulsions (SE), suspension concentrates (SC) or water-dispersible granules (WG). The formulation(s) were suspended or emulsified in water as a distribution medium immediately prior to spraying. Afterwards, the aqueous mixture was evenly sprayed on the test plots or plant pots by means of finely distributing nozzles.
(§2) For the greenhouse tests, plants were grown in pots to a height between 3 and 6 cm, and then treated (post-emergence). During the test period of 29 days, the plants were tended.
(§3) The evaluation of the damage caused by the phenyluracils I and/or the other active ingredients according to the present invention was carried out using a scale from 0 to 100%, compared to the untreated control plots. Here, 0 means no damage and 100 means complete destruction of the plants of a respective weed or crop species.
(§4) In this example, glyphosate (isopropylammonium salt) was formulated as a 353 g/l SL and Phenyluracil I.7 as a 120 g/l EC. Prior to application, the formulated active ingredients were tank-mixed with an aqueous 187 l/ha spray solution which contained, in addition, 15 g/l of ammonium sulphate and 2.5 g/l of non-ionic surfactant.

[2] = test system: Glyphosate resistant marestail (ERICA); assay: Greenhouse test, post-emergence control of glyphosate resistant marestail; conditions: use rate 420 g/ha
Text: as §1, §2, §3, §4

[3] = test system: Glyphosate resistant cotton; assay: Field test, control of glyphosate resistant cotton in post-directed treatment; conditions: glyphosate 560 g/ha
Experimental: (§5) In the examples below, the value E which is to be expected if the activity of the individual compounds is just additive was calculated using the method of S. R. Colby (1967) “Calculating synergistic and antagonistic responses of herbicide combinations”, Weeds 15, p. 22 ff.
(§6) where X=effect in percent using active compound A at an application rate a; Y=effect in percent using active compound B at an application rate b; E=expected effect (in %) of A+B at application rates a+b.
(§7) If the experimentally determined value is higher than the value E calculated according to Colby's equation, a synergistic effect is present.
as §1
(§8) As regards the field tests, the test plots were of uniform size (typically between 14 and 37 square meters, each) and the distribution of treated and untreated plots was organized according to a randomised bloc design. […]

[4] = test system: glyphosate resistant corn; assay: Field test, control of volunteer glyphosate resistant corn by pre-emergence application; conditions: Imazethapyr 70 g/ha, pre-emergence to soybean crop
Experimental: as §5, §6, §7, §1, §8

Structure (SMILES)	Glyphosate susceptible marestail (ERICA) at 29 DAT (% herbicide control) [1]	Glyphosate resistant marestail (ERICA) at 29 DAT (% herbicide control) [2]	Glyphosate resistant cotton at 3 DAT (% control), Found [3]	Control of glyphosate resistant corn at 29 DAT (% control), Found [4]
O=C(O)CNCP(=O)(O)O [Glyphosate, glyphosate]	98%	0%	0%	
CCc1cnc(C2=NC(C)(C(C)C)C(=O)N2)c(C(=O)O)c1 (stereo not shown) [Imazethapyr, imazethapyr]				23%

— patent US20080227637A1, “A Method of Controlling Weeds” (BASF Aktiengesellschaft, priority 2005, published 2008)
